# Data as given in patent US20020028790A1, “Use of agonists or antagonists of P2 purinoceptors for the prevention glutamate-evoked cytotoxicity” (priority 1995, published 2002).
# pIC50: −log10 of the molar value.
# Legend:
# [1] = system: cerebellar granule neurons; test: Uptake of [3H] aspartate by cerebellar granule cultures; type: cell-based, rat; details: same basilen blue treatments as for cytotoxicity
# Procedure: The effects of basilen blue on protection from cytotoxicity are linear with time and depend on the modality of somministration of the compound. When basilen blue is added to the cells 10 min after glutamate, and then incubated with granule neurons for only 15 min, it protects from cell death 60-70% of the entire neuronal population; if somministered only for the last 5 min of treatment of the cells with glutamate, basilen blue sustains survival of 25-40% of total neurons. When instead it is added 1-2 min or 30 min or 2 hours after exposure of granule neurons to glutamate (and then incubated with the cells for the next 20 hours) basilen blue protects from cell death respectively 55-70%, 30% and 10% of the total neuronal population. When it is added before (not during or after) exposure of granule neurons to glutamate, basilen blue requires a pretreatment of at least 20-25 hours in order to prevent by 70-80% the cytotoxic action of glutamate. Inhibition of aspartate uptake is not obtained as a consequence of these same treatments.
# Basilen Blue inhibits binding of ATP to cerebellar granule cell membranes, but to uptake of aspartate. […] After two washes, cells were dissolved in 0.1 M NaOH and counted for incorporated radioactivity by liquid scintillation counting. […] Protein concentrations were determined by the method of Bradford with ovine serum albumin as standard.
# [2] = system: intact cells (granule neurons, [3H] ATP binding); test: Binding of [3H] ATP to intact cells; design: species or system rat
# Procedure: (§1) Basilen blue inhibits binding of [^3H] ATP to membranes of granule neurons with an IC50 of about 10 μM, that corresponds to the IC50 that prevents glutamate-evoked cytotoxicity. Binding studies with [^3H]
# [3] = system: cerebellar granule neurons; test: Glutamate-evoked cytotoxicity in cerebellar granule primary cultures (cell survival by count of intact viable nuclei); type: cell-based; details: for cellular survival / abolition of the cytotoxic action of glutamate: 100 μM compound in the simultaneous presence of 100 μM glutamate (acute exposure); for total neuronal population protected from cell death: incubated for the next 20 hours
# Excerpt: Always according to the present invention, these compounds are used to prevent glutamate-evoked cytotoxicity in the nervous system's cells, particularly in CNS neurons. As a cellular model system for CNS neurons we have adopted postnatal rat cerebellar neurons. These cells, which are among the best characterized primary neuronal cultures, when isolated from postnatal rat cerebellum (Lasher R. S., and Zagon I. S., Brain Res. 41, 428-438, 1972), develop in vitro their mature phenotype as interneurons which use glutamate as a neurotransmitter and furthermore constitute an excellent model system for the study of glutamate-mediated cytotoxicity.
# By exposing granule neurons to 100 μM glutamate for 15-30 min is obtained (after 15-20 hours) 80-100% of total cell death. […] The effects of basilen blue on cerebellar granule cell morphology reveal, despite the exposure to glutamate, which otherwise induces complete cell death, apparently healty-looking cell bodies that do bear a dense network of highly branching processes. Adhesion and neurites fasciculation are also preserved by basilen blue.
# Basilen Blue prevents cytotoxicity induced by glutamate in cerebellar granule primary cultures: effects of dose-response and modality of addition. Replicate cerebellar granule cultures at 8 DIV were exposed for 25 min to 100 μM glutamate, in the simultaneous presence of different concentrations of basilen blue (FIG. 1). After 20 hours, the cultures were assessed for cultures were assessed for cell survival by direct count of intact viable nuclei. The asterisk represents the % of nuclei obtained after simultaneous addition to the cells of 100 μM glutamate and 100 μM caffeine. In FIG. 2, replicate cerebellar granule cultures at 8 DIV were exposed for 25 min to 100 μM glutamate. At different time after glutamate withdrawl, basilen blue (100 μM) was added to the medium until the cultures, 20 hours later, were assessed for cell survival by direct count of intact viable nuclei. The asterisk represents the % of nuclei obtained after simultaneous addition to the cells of 100 μM glutamate and 100 μM basilen blue. In FIG. 3, replicate cultures were pretreated in the presence of 100 μM basilen blue for different time, before the addition of 100 μM glutamate for 25 min (performed in the absence of basilen blue). After 20 hours the cultures were assessed for cell survival.
# The asterisk represents the % of nuclei obtained after simultaneous addition to the cells of 100 μM glutamate and 100 μM basilen blue. Counts represent means±SEM (n=4) and 100% of cell survival represents 1.75−2×10^6 total cells.
# METHODS. Approximately 20 hours after exposure of granule cells to glutamate, the culture medium was removed and replaced with 1 ml of a detergent-containing lysing solution (0.5% ethyl hexadecyl dimethyl—ammonium bromide, 0.28% acetic acid, 0.5% Triton X-100, 3 mM NaCl, 2 mM MgCl2, in PBS pH 7.4 diluted 1/10).
# After 1-2 minutes, the cells were triturated a few times, providing a uniform uspension of single, intact viable nuclei. The latter were quantified by ounting in a hemacytometer. Broken or damaged nuclei were not included in the counts.
# Culturing cerebellar granule cells in the presence of AMPPNP: modulation of glutamate-dependent cell death, Ca^++ uptake and aspartate release. Primary cerebellar granule cultures were prepared and starting at 1 DIV some of time were daily supplemented with 100 μM AMPPNP.(FIG. 6) At 8 DIV, after two washes, some of the cultures were incubated at 20° C. for 25 min with 100 μM glutamate. The following day, they were assessed for cell survival, as previously described.
# [4] = system: cerebellar granule neurons; test: Glutamate-evoked Ca2+ uptake in cerebellar granule cells; type: cell-based, rat
# Procedure: Glutamate-dependent neurotoxicity is often accompanied also in cerebellar granule neurons with increase in intracellular Ca^2+ via a multistep process. […] Also this value is in accordance with the IC50 found for inhibition of ATP binding, cytotoxicity and aspartate release. The basilen blue-dependent inhibition occurs when Ca^2+ uptake is measured for short (1 min) or for longer times (3, 10, and 25 min). The cronic exposure of granule neurons for 8 days to 100 μM AMPPNP inhibits by 50-70% glutamate-evoked Ca^2+ influx, similarly to the inhibition of cytotoxicity and aspartate release.
# (§2) (FIG. 7) Replicate cerebellar granule cultures at 8 DIV were incubated for 1 min in Locke's solution in the presence of 45 Ca^++ (1 μCi/ml), with or without 100 μM glutamate, and were then assessed for Ca^++ influx. (FIG. 8) Replicate cerebellar granule cultures at 8 DIV were incubated for 5 min in Locke's solution, in the presence of [^3H] D-2,3 aspartic acid (1 μCi/ml, final concentration 40 nM) and were then assessed for aspartate release, in the presence or absence of 100 μM glutamate. Data are expressed as means±SEM (n=3).
# (§3) Basilen Blue inhibits release of aspartate and uptake of Ca^++ induced by glutamate in cerebellar granule cells. (FIG. 9) Replicate cerebellar granule cultures at 8 DIV were incubated for 5 min in Locke's solution in the presence of [^3H] D-2,3 aspartic acid (1 μCi/ml, final concentration 40 nM). After two washes, the cultures were then incubated for 1 min in Locke's solution with or without 100 μM glutamate and in the presence of different concentrations of basilen blue. The buffer removed from the cultures during this release phase was collected into vials and counted for radioactivity. The asterisk represents the release of aspartate obtained in the simultaneous presence of 100 μM glutamate and 100 μM caffeine. Cells were dissolved in 0.1 M NaOH and protein concentrations were determined by the method of Bradford, with bovine serum albumin as standard. (FIG. 10) Replicate cerebellar granule cultures at 8 DIV were incubated for 1 min in Locke's solution in the presence of 45 Ca^++ (1 μCi/ml), with our without 100 μM glutamate, and in the simultaneous presence of different concentrations of basilen blue. After two washes with ice-cold 154 mM choline chloride, 2 mM EDTA, the cells were lysed in 0.1 M NaOH and aliquots were collected for measuring Ca^++ influx (by radioactive counting) and protein concentration. The asterisk represents the Ca^++ influx obtained in the simultaneous presence of 100 μM glutamate and 100 μM caffeine. Data are expressed as means±SEM (n=3).
# [5] = system: cerebellar granule neurons; test: Glutamate-induced release of [3H] aspartate from cerebellar granule cells; type: cell-based, rat
# Excerpt: Since D-[^3H] aspartate release has been often used as a measure of the functional state of cerebellar granule neurons cultured in vitro and depolarization- or glutamate-evoked aspartate release is a feature progressively aquired by these cells along with neuronal maturation, we decided to test this parameter to further study the biological effects and possible mechanisms used by basilen blue in the prevention of cell death. We find that basilen blue inhibits glutamate-induced release of [^3H] aspartate with an IC50 of about 10 μM. […] Also a cronic exposure of granule neurons for 8 days to 100 μM AMPPNP inhibits by 70-80% the glutamate-evoked release of [^3H] aspartate.
# as §2, §3
# [6] = system: membranes of granule neurons ([3H] ATP binding); test: Binding of [3H] ATP to cerebellar granule cell membranes; design: species or system rat; details: 1 h at 4° C, read-out: IC50 for inhibition of binding of [3H] ATP to membranes
# Procedure: as §1
# Basilen Blue inhibits binding of ATP to cerebellar granule cell membranes, but to uptake of aspartate. Membranes were prepared from 8 DIV cerebellar granule ells and 20 μg of protein were incubated with [^3H] ATP (0.5 μCi/ml, final concentration […]) (FIG. 4), in the presence of different concentrations of basilen blue, for 1 h at 4° C. Specific binding is shown and counts represent means±SEM (n=3). The asterisk represents the binding performed in the presence of 100 μM caffeine. In FIG. 5, replicate cerebellar granule cultures at 8 DIV were washed wice and incubated for different times in Locke's solution with [^3H] […] After two washes, cells were dissolved in 0.1 M NaOH and counted for incorporated radioactivity by liquid scintillation counting. […] Protein concentrations were determined by the method of Bradford with ovine serum albumin as standard.
# METHODS. […] ATP, the samples (1 ml) were vacuum-filtered through Whatman GF/B glass fiber filters and the filters were immediately washed (3×4 s) with 5 ml of 50 mM Tris-HCl (pH 7.4), air dried and assessed for specifically bound radioactivity by liquid scintillation counting.
# [7] = chronic exposure for 8 days to 100 μM
compound,measurement,setting,value
Basilen Blue E 3G,inhibition of aspartate uptake,[1],not obtained
same,inhibition of [3H] ATP binding to intact cells,[2],as effective
same,cellular survival / abolition of the cytotoxic action of glutamate,[3],completely sustains cellular survival
same,pIC50,"[3]; 100 μM glutamate, compound present simultaneously, read-out: IC50 for prevention of glutamate-evoked cell death",4.70 to 5.00
same,total neuronal population protected from cell death,[3]; added 1-2 min after exposure to glutamate,55-70%
same,neuronal population protected from cell death,"[3]; added 10 min after glutamate, then incubated with neurons for only 15 min",60-70%
same,total neuronal population protected from cell death,[3]; added 30 min after exposure to glutamate,30%
same,total neuronal population protected from cell death,[3]; added 2 hours after exposure to glutamate,10%
same,adhesion and neurites fasciculation,"[3]; despite exposure to glutamate, 100 μM basilen blue",preserved
same,survival of total neurons,[3]; given only for the last 5 min of glutamate treatment,25-40%
same,acute response (rapid swelling of the cell body and loss of brightness),"[3]; within the first 5 min of treatment with glutamate, basilen blue added",prevented
same,pIC50,"[4]; 100 μM glutamate, read-out: IC50 for inhibition of glutamate-evoked Ca2+ uptake",~5.00
same,extent of inhibition of glutamate-evoked Ca2+ uptake,"[4]; uptake measured for 1, 3, 10 and 25 min",almost completely abolishes
same,basal Ca2+ uptake,[4]; without glutamate,not basal
same,pIC50,"[5]; 100 μM glutamate, read-out: IC50 for inhibition of glutamate-induced release of [3H] aspartate",~5.00
same,extent of inhibition of glutamate-induced [3H] aspartate release,"[5]; release measured for 1, 3, 10, 25 min or in presence of Mg2+",almost complete
same,basal release of [3H] aspartate,[5]; without glutamate,does not affect
same,pIC50,[6],~5.00
"Nc1c(S(=O)(=O)O)cc(Nc2ccc(Nc3nc(Cl)nc(Nc4ccccc4S(=O)(=O)O)n3)c(S(=O)(=O)O)c2)c2c1C(=O)c1ccccc1C2=O [cibacron blue, Cibacron Blue 3GA]",prevention of glutamate-evoked cell death (in words),[3],effective
Cn1c(=O)c2c(ncn2C)n(C)c1=O [Caffeine],abolition of the cytotoxic action of glutamate,[3]; up to 100 μM,does not abolish
"Nc1ncnc2c1ncn2C1OC(COP(=O)(O)OP(=O)(O)NP(=O)(O)O)C(O)C1O (stereo not drawn) [AMPPNP, 5-adenylylimidodiphosphate]",cellular survival / abolition of the cytotoxic action of glutamate,[3],not effective
same,inhibition of glutamate-induced cytotoxicity,[3]; cells cultured in continuous presence of 100 μM compound from day 1 (not later than day 2) in vitro,50-60%
same,inhibition of glutamate-evoked Ca2+ influx,[4]; [7],50-70%
same,inhibition of glutamate-evoked release of [3H] aspartate,[5]; [7],70-80%
